Where two headings read alike, the source gives them in different places.
Legend:
[1] = biological target: human CB1 receptor (hCB1) (Homo sapiens, UniProt P21554); assay: cell-based; format: cell-based
Procedure, shortened: (§1)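 Agonism or inverse agonism was assessed as change in intracellular cAMP in CHO-K1 cells expressing human CB1 or rat CB2 (genomic DNA, pcDNA3.1).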

rat CB2 receptor (rCB2) = biological target: T1, rat CB2 receptor (rCB2) (Rattus norvegicus, UniProt Q9QZN9); assay: cell-based; format: cell-based; conditions: for +/− RCB2: agonist or inverse agonist at rCB2
T1 sequence (Q9QZN9 1-360): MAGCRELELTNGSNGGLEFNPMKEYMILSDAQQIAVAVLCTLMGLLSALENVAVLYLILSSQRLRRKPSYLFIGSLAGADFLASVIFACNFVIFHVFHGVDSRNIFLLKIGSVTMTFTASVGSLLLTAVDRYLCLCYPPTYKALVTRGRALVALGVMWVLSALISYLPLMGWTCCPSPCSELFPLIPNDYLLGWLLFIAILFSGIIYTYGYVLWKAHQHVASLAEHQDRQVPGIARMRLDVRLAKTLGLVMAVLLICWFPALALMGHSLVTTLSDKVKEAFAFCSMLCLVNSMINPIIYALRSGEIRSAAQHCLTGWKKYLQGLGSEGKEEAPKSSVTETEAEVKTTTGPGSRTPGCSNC
Procedure, shortened: as §1

[2] = groups >100 nM-10 μM and >10 μM, cAMP, CHO-K1 hCB1, read-out: EC50 HCB1

Chain of human CB1 receptor (hCB1) (P21554 whole entry): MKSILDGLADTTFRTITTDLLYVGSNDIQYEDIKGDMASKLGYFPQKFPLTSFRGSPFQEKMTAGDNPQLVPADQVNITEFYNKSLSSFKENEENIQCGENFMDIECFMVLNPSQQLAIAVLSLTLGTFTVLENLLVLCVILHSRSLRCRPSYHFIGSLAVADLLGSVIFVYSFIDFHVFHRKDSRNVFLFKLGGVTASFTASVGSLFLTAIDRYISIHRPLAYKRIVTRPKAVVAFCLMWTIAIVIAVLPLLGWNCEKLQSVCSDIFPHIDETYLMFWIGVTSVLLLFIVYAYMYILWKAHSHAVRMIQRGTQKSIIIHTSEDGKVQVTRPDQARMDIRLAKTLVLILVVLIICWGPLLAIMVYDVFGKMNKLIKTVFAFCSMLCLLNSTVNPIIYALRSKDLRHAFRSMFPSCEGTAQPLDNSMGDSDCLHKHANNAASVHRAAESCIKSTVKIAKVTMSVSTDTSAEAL

CN1CCCn2c(-c3ccccc3)nc(C(=O)N[C@H](C(=O)O)C(C)(C)C)c2C1 [Compound 471, (S)-3,3-dimethyl-2-(8-methyl-3-phenyl-6,7,8,9-tetrahydro-5H-imidazo[1,5-a][1,4]diazepine-1-carboxamido)butanoic acid]
EC50 [1]: > 10000 nM
EC50 (rat CB2 receptor (rCB2)): > 10 µM

COC(=O)N1CCn2c(-c3ccccc3)nc(C(=O)NC3CCCCC3)c2C1 [Compound 187, methyl 1-(cyclohexylcarbamoyl)-3-phenyl-5,6-dihydroimidazo[1,5-a]pyrazine-7(8H)-carboxylate]
EC50 [1, 2]: > 10000 nM
+/− RCB2 (rat CB2 receptor (rCB2)): −

CNC(=O)[C@@H](NC(=O)c1nc(-c2ccccc2)n2c1CN(C(=O)C(C)(C)C)CC2)C(C)(C)C [Compound 190, (S)-N-(3,3-dimethyl-1-(methylamino)-1-oxobutan-2-yl)-3-phenyl-7-pivaloyl-5,6,7,8-tetrahydroimidazo[1,5-a]pyrazine-1-carboxamide]
EC50 [1]: > 10000 nM
+/− RCB2 (rat CB2 receptor (rCB2)): −

O=C(Nc1ccccc1)c1nc(-c2ccccc2)n2c1CN(CCO)CC2 [Compound 151, 7-(2-hydroxyethyl)-N,3-diphenyl-5,6,7,8-tetrahydroimidazo[1,5-a]pyrazine-1-carboxamide]
EC50 [1, 2]: > 10000 nM
+/− RCB2 (rat CB2 receptor (rCB2)): −

CNC(=O)[C@@H](NC(=O)c1nc(-c2ccc(C#N)cc2)n2c1CN(C)CCC2)C(C)(C)C [Compound 342]
EC50 [1]: > 10000 nM
EC50 (rat CB2 receptor (rCB2)): > 10 µM

CN1CCn2c(-c3ccccc3)nc(C(=O)N[C@@H](CO)C(C)(C)C)c2C1 [Compound 67, (R)-N-(1-hydroxy-3,3-dimethylbutan-2-yl)-7-methyl-3-phenyl-5,6,7,8-tetrahydroimidazo[1,5-a]pyrazine-1-carboxamide]
EC50 [1]: > 10000 nM
EC50 (rat CB2 receptor (rCB2)): > 10 µM

CNC(=O)[C@@H](NC(=O)c1nc(-c2cccc(S(=O)(=O)N3CCCC3)c2)n2c1CN(C)CCC2)C(C)(C)C [Compound 385, (S)-N-(3,3-dimethyl-1-(methylamino)-1-oxobutan-2-yl)-8-methyl-3-(3-(pyrrolidin-1-ylsulfonyl)phenyl)-6,7,8,9-tetrahydro-5H-imidazo[1,5-a][1,4]diazepine-1-carboxamide]
EC50 [1]: > 10000 nM
EC50 (rat CB2 receptor (rCB2)): > 10 µM

CC(C)C[C@H](NC(=O)c1nc(-c2cc(F)c(F)cc2F)n2c1CN(C)CCC2)C(N)=O [Compound 572, (S)-N-(1-amino-4-methyl-1-oxopentan-2-yl)-8-methyl-3-(2,4,5-trifluorophenyl)-6,7,8,9-tetrahydro-5H-imidazo[1,5-a][1,4]diazepine-1-carboxamide]
+/− HCB1 ([1]; agonist or inverse agonist at hCB1): +
+/− RCB2 (rat CB2 receptor (rCB2)): +

CNC(=O)[C@@H](NC(=O)c1nc(-c2ccccc2)n2c1CN(S(=O)(=O)CC(C)C)CC2)C(C)(C)C [Compound 95, (S)-N-(3,3-dimethyl-1-(methylamino)-1-oxobutan-2-yl)-7-(isobutylsulfonyl)-3-phenyl-5,6,7,8-tetrahydroimidazo[1,5-a]pyrazine-1-carboxamide]
EC50 [1]: > 10000 nM
+/− RCB2 (rat CB2 receptor (rCB2)): −

CC(C)CCNC(=O)c1nc(-c2ccc(Cl)cc2)n2c1CN(C(=O)c1ccccc1)CC2 [Compound 130, 7-benzoyl-3-(4-chlorophenyl)-N-isopentyl-5,6,7,8-tetrahydroimidazo[1,5-a]pyrazine-1-carboxamide]
EC50 [1]: > 10000 nM
+/− RCB2 (rat CB2 receptor (rCB2)): −

CNC(=O)[C@@H](NC(=O)c1nc(-c2ccoc2)n2c1CNCC2)C(C)(C)C [Compound 12, (S)-N-(3,3-dimethyl-1-(methylamino)-1-oxobutan-2-yl)-3-(furan-3-yl)-5,6,7,8-tetrahydroimidazo[1,5-a]pyrazine-1-carboxamide]
EC50 [1]: > 10000 nM
+/− RCB2 (rat CB2 receptor (rCB2)): −

CNC(=O)[C@@H](NC(=O)c1nc(-c2ccccc2)n2c1CN(Cc1cncnc1)CC2)C(C)(C)C [Compound 62, (S)-N-(3,3-dimethyl-1-(methylamino)-1-oxobutan-2-yl)-3-phenyl-7-(pyrimidin-5-ylmethyl)-5,6,7,8-tetrahydroimidazo[1,5-a]pyrazine-1-carboxamide]
EC50 [1]: > 10000 nM
+/− RCB2 (rat CB2 receptor (rCB2)): −

Reference: patent publication US7517874B2 (priority 2007, dated 2009)
